Laboratory results taken from ChEMBL document CHEMBL4725485, “Bivalent Ligand Aiming Putative Mu Opioid Receptor and Chemokine Receptor CXCR4 Dimers in Opioid Enhanced HIV-1 Entry” (ACS Med Chem Lett, 2020).
Active and inactive are the calls of the source. The calls are words filed in the database; no cut-off is given here.

What was measured:
[1] = target: T1, C-X-C chemokine receptor type 4 (Homo sapiens, UniProt P61073); test: Displacement of [125I]SDF-1alpha from CXCR4 in human Chem-1 cells measured after 90 mins; format: cell-based
T1 sequence (P61073 whole entry): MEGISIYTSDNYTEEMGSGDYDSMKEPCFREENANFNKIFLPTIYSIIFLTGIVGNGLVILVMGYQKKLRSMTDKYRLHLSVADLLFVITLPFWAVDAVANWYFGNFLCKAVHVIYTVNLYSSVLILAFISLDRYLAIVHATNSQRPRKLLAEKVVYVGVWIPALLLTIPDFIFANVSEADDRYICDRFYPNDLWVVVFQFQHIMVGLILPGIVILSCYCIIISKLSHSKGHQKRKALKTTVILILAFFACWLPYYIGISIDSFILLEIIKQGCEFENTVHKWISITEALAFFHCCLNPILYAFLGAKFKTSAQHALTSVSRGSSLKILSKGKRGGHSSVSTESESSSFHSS

Mu-type opioid receptor [2] = target: Mu-type opioid receptor (Mus musculus, UniProt P42866); test: Displacement of [3H]-NLX from mouse mu opioid receptor expressed in CHO cells measured after 1.5 hrs by competitive-binding assay; format: cell-based
Chain of Mu-type opioid receptor (Mus musculus, UniProt P42866) (P42866 whole entry): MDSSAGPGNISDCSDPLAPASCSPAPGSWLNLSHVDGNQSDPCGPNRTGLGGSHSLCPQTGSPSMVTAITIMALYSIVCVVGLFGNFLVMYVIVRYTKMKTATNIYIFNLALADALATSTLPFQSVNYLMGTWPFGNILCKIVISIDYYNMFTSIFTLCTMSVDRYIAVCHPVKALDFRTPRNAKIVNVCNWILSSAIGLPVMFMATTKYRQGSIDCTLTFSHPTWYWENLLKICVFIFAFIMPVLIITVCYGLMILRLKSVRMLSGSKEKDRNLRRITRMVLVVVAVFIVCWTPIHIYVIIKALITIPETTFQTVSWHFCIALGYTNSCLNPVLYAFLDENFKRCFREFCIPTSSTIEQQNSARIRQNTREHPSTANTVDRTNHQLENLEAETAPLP

Mu-type opioid receptor [3] = target: T2, Mu-type opioid receptor (Homo sapiens, UniProt P35372); test: Antagonist activity at human mu opioid receptor expressed in CHO cells co- expressing Gqi5 assessed as decrease in DAMGO-induced intracellular calcium mobilization incubated for 15 mins followed by DAMGO addition by Fluo-AM dye based fluorescence assay; format: functional, cell-based
T2 sequence (P35372 whole entry): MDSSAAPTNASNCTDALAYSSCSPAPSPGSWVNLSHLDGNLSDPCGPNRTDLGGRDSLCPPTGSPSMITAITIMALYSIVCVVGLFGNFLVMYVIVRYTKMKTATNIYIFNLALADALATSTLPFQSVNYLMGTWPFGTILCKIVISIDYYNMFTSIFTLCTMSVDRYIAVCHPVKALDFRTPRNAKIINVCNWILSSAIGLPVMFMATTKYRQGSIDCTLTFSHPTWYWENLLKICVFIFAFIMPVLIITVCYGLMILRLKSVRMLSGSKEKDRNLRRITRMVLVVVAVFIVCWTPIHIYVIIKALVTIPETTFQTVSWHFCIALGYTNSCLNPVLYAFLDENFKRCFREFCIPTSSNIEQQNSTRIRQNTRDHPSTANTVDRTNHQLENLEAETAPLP

Mu-type opioid receptor [4] = target: T2, Mu-type opioid receptor; test: Agonist activity at mu opioid receptor (unknown origin) by [35S]-GTPgammaS binding assay; format: functional
Mu-type opioid receptor [5] = target: T2, Mu-type opioid receptor; test: Agonist activity at mu opioid receptor (unknown origin) assessed as maximum efficacy by [35S]-GTPgammaS binding assay relative to DAMGO; format: functional; settings: filed as agonist
[6] = Cytotoxicity against human GHOST CXCR4 cells assessed as reduction in cell viability incubated for 4 hrs by XTT assay; format: cell-based; settings: read-out: TC50
TZM-bl = test: Inhibition of HIV1 3B Tat infected in human TZM-bl cells assessed as reduction in viral entry in cells at 30 uM when pretreated for 1 hr followed by HIV1 3B infection and further incubated for 2 days followed by luciferase substrate addition by luminescence assay relative to control; format: cell-based; settings: Human immunodeficiency virus 1, time 2.0 day
[7] = test system: Human immunodeficiency virus 1; test: Antiviral activity against HIV1 3B infected in human TZM-bl cells assessed as reduction in viral entry by measuring Tat protein level at 1000 nM measured after 3 days in presence of morphine by luciferase-based assay; format: functional, organism-based; settings: time 3.0 day
[8] = test system: Human immunodeficiency virus 1; test: Antiviral activity against HIV1 3B infected in human TZM-bl cells assessed as reduction in viral entry by measuring Tat protein level at 1000 nM measured after 3 days by luciferase-based assay; format: functional, organism-based; settings: time 3.0 day
[9] = Therapeutic index, ratio of TC50 for human GHOST CXCR4 cells assessed as reduction in cell viability incubated for 4 hrs by XTT assay to EC50 for HIV1 3B reverse transcriptase infected in human GHOST CXCR4 cells assessed as reduction in viral replication incubated for 60 to 90 mins in presence of DTT and TTP by liquid scintillation counter; format: toxicity, cell-based; settings: read-out: TI
[10] = Inhibition of HIV1 3B Tat infected in human TZM-bl cells assessed as reduction in viral entry in cells when pretreated for 1 hr followed by HIV1 3B infection and further incubated for 2 days followed by luciferase substrate addition by luminescence assay; format: cell-based; settings: Human immunodeficiency virus 1, 3B
[11] = target: T1, C-X-C chemokine receptor type 4; test: Antagonist activity at CXCR4 (unknown origin) expressed in CHO cells assessed as reduction in SDF1-induced intracellular calcium mobilization incubated for 15 mins followed by SDF1 addition by Fluo-AM dye based fluorescence assay; format: functional, cell-based
[12] = test system: Human immunodeficiency virus 1; test: Antiviral activity against HIV1 3B infected in human TZM-bl cells assessed as reduction in viral entry by measuring Tat protein level at 1500 nM measured after 3 days in presence of IT1T and morphine by luciferase-based assay; format: functional, organism-based; settings: time 3.0 day
[13] = test system: Human immunodeficiency virus 1; test: Antiviral activity against HIV1 3B infected in human TZM-bl cells assessed as reduction in viral entry by measuring Tat protein level at 60 nM measured after 3 days by luciferase-based assay; format: functional, organism-based; settings: time 3.0 day
[14] = test system: Human immunodeficiency virus 1; test: Antiviral activity against HIV1 3B infected in human TZM-bl cells assessed as reduction in viral entry by measuring Tat protein level at 60 nM measured after 3 days in presence of morphine by luciferase-based assay; format: functional, organism-based; settings: time 3.0 day
[15] = test system: Human immunodeficiency virus 1; test: Antiviral activity against HIV1 3B infected in human TZM-bl cells assessed as reduction in viral entry by measuring Tat protein level at 60 nM measured after 3 days in presence of naltrexone and morphine by luciferase-based assay; format: functional, organism-based; settings: time 3.0 day

Work on `CC1(C)CN2C(CS/C(=N\[C@H]3CC[C@H](CNC(=O)COCC(=O)NCCCCCCNC(=O)COCC(=O)N[C@@H]4CC[C@@]5(O)[C@H]6Cc7ccc(O)c8c7[C@@]5(CCN6CC5CC5)[C@H]4O8)CC3)NC3CCCCC3)=CSC2=N1` yielded an IC50 [1] of 17.2 nM.
With `CNC(=O)COCC(=O)NCCCCNC(=O)COCC(=O)N[C@@H]1CC[C@@]2(O)[C@H]3Cc4ccc(O)c5c4[C@@]2(CCN3CC2CC2)[C@H]1O5` the Ki (Mu-type opioid receptor [2]) was 3.1 nM, the IC50 (Mu-type opioid receptor [3]) was 254 nM and the EC50 (Mu-type opioid receptor [4]) was 8.1 nM. The Emax (Mu-type opioid receptor [5]) was 12.3%.
In the case of `CC1(C)CN2C(CS/C(=N\[C@H]3CC[C@H](CNC(=O)COCC(=O)NCCCCCCCCNC(=O)COCC(=O)N[C@@H]4CC[C@@]5(O)[C@H]6Cc7ccc(O)c8c7[C@@]5(CCN6CC5CC5)[C@H]4O8)CC3)NC3CCCCC3)=CSC2=N1`, the Ki (Mu-type opioid receptor [2]) is reported as 2.92 nM.
`CC1(C)CN2C(CS/C(N)=N\[C@H]3CC[C@H](CNC(=O)COCC(=O)NCCCCNC(=O)COCC(=O)N[C@@H]4CC[C@@]5(O)[C@H]6Cc7ccc(O)c8c7[C@@]5(CCN6CC5CC5)[C@H]4O8)CC3)=CSC2=N1` gave a Ki (Mu-type opioid receptor [2]) of 3.8 nM, a CC50 at 4 h [6] of 153000 nM and an inhibition (TZM-bl) of 100%. The Activity [7] was “Active”, the Activity [8] was “Active” and the IC50 (Mu-type opioid receptor [3]) was 30.5 nM. For the same compound, the selectivity ratio at 4 h [9] was 160, the IC50 [10] was 300 nM and the IC50 [1] was 3600 nM. For the same compound, the IC50 [11] was 8300 nM, the EC50 (Mu-type opioid receptor [4]) was 50 nM and the Emax (Mu-type opioid receptor [5]) was 9.5%.
In the case of `O=C1CC[C@@]2(O)[C@H]3Cc4ccc(O)c5c4[C@@]2(CCN3CC2CC2)[C@H]1O5`, the Activity [12] is reported as “Active”.
With `CNC(=O)COCC(=O)NCCCCNC(=O)COCC(=O)NC[C@H]1CC[C@H](/N=C(\NC2CCCCC2)SCC2=CSC3=NC(C)(C)CN23)CC1` the selectivity ratio at 4 h [9] was 3.8, the IC50 [1] was 69000 nM and the IC50 [11] was 53000 nM.
For `CC1(C)CN2C(CS/C(=N\C3CCCCC3)NC3CCCCC3)=CSC2=N1`, the CC50 at 4 h [6] was greater than 1000 nM, the Activity [13] was “Active” and the IC50 [10] was 164 nM. For the same compound, the Activity [14] was “Active” and the Activity [15] was “Active”.
